What all share (format): in vivo
The subject of test [1] is mechanical (tactile) allodynia after L5 nerve ligation. Briefly: Rat Chung Model of Neuropathic Pain (L5 nerve ligation, von Frey mechanical allodynia). The method, then:
The rat Chung model is an assay used in determining whether a compound is useful for the treatment of neuropathic pain (Kim and Chung, 1994; Chaplan et al., 1994).
In this study, male Sprague Dawley rats (145-165 g; Harlan) were anesthetized and the L5 nerve was isolated and ligated with silk suture material resulting in mechanical allodynia. Two weeks post-ligation, rats were dosed acutely with vehicle (an aqueous solution of 0.5% methylcellulose) or Compound #1 at 15, 30, 60, 120 or 240 mg/kg, p.o. Mechanical (tactile) allodynia was quantified by recording the pressure at which the affected paw withdrew from a graded stimulus (von Frey hairs) at 30 min, 1, 2 and 4 h post-dosing. Data were normalized and results are presented as % MPE (maximum […] effect) of the drug.

Test [2] concerns Taxol induced mechanical allodynia in the rat hind paw. Put plainly: Taxol-Induced Peripheral Neuropathy (von Frey paw withdrawal threshold). To be noted: 100 mg/kg, p.o. daily for 12 days with Taxol 2 mg/kg i.p.; day 12; not statistically different from baseline (16.42±2.14 g). The text has this:
Peripheral neuropatheis are chronic conditions that arise when nerves are damaged by trauma, disease, metabolic insufficiency or by certain drugs and toxins. The sensory disturbances associated with chemotherapeutic agents, such as paclitaxel (Taxol), range from mild tingling to spontaneous burning, typically in the hands and feet. Symptoms become more intense with continued therapy and can lead to weakness, ataxia, numbness and pain. Taxol-induced peripheral neuropathy in rats have therefore been used as a model of peripheral neuropathies in humans.
Male Sprague-Dawley rats (Harlan) were randomly assigned to two treatment groups: vehicle (0.5% hypromellose, p.o.) and Compound #1 (100 mg/kg, p.o). All rats were injected with Taxol (2 mg/kg, i.p.) on days 1, 3, 5 and 7. At the same time, rats received daily oral gavage of vehicle or Compound #1, starting the day of the first Taxol injection and continuing for 12 days.
All animals were acclimated to the allodynia procedure 2-3 days prior to testing allowing the rats to habituate to the testing devices. Rats underwent Von Frey hair testing as a measure of mechanical allodynia at baseline and on days 5 and 12 post-Taxol injection. Tactile sensitivity was measured using calibrated filaments touched to the plantar surfaces of the affected limb. […]

For test [3], the system named is formalin-induced inflammatory-mediated pain response (hind-paw licking). Put plainly: Mouse Formalin Assay. To be noted: i.p.; for acute response, decrease from control: acute phase. The method, then: The mouse formalin test is an acute and chronic model for testing the ability of a test compound for the treatment of pain.
In the Mouse Formalin Test, 0.5% formalin was injected s.c. into the plantar region of the hind-paw of adult male mice to induce an inflammatory-mediated pain response. Pain was expressed as licking of the injected area in a bi-modal manner—acute and chronic phase. The acute phase occurred immediately and lasted approximately 10-15 min post-injection, representing direct stimulation of pain fibers. Licking behavior resumes approximately 10 mins later (˜20 min post injection) and lasted 10-15 min, representing the chronic phase due to centralized sensitization in dorsal horn neurons and hypothesized to be caused by the release of inflammatory mediators such as cytokines.
Activity in the acute phase of the formalin test is an indicator of acute pain believed to correlate with peripheral pain pathways.

Setting [4] is: 107 mg/kg, 15 min prior to formalin injection, p<0.01.

The ED50 is the midpoint of the dose-response relation.

As for `NS(=O)(=O)NCc1csc2ccccc12` [Compound #1, N-(benzo[b]thien-3-ylmethyl)-sulfamide], the “improvement in the allodynic response (% MPE)” value in test [1] (240 mg/kg, p.o., at 1 h post-dosing) was determined as 80%. Moreover, the ED50 in test [1] (Rattus norvegicus, po, at 1 h post-dosing, n=5 rats/dose, read-out: acute oral ED50) was determined as 169 mg/kg. For the same compound, in test [1] (p.o., efficacy observed at 30 min, gone by 4 h), the “time of peak efficacy post-dosing” value worked out at 1 h. The compound also came in with a withdrawal force in test [2] of 14.32 ± 5.45 g. The “acute response, decrease from control” value in test [3] (53 mg/kg, p<0.05) amounted to 32%; in test [3] (setting [4]) it was 52%. Also, the “chronic phase response, decrease from control” value in test [3] (53 mg/kg, p<0.01) came to 67%; in test [3] (setting [4]) it was 88%.
